Legend:
human Gal-1 (hGal-1) = assay: Competitive binding assay: binding of biotinylated hGal-1 to microplate-adsorbed asialofetuin (ASF); conditions: Activities on hGal-1; mean values of several measurements
Procedure, shortened: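 For hGal-1, a variant with all six cysteines replaced by serines is preferred. Either galectin, biotinylated at 300-1000 ng/mL, competes with compound for microplate-bound ASF over 3 h at 4° C; peroxidase/ABTS detection gives IC50, averaged.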

human Gal-3 (hGal-3) = human Gal-3 (hGal-3) (Homo sapiens (Human), UniProt P17931); assay: Competitive binding assay: binding of biotinylated hGal-3 to microplate-adsorbed asialofetuin (ASF); conditions: Activity on hGal-3; mean values of several measurements
Procedure, shortened: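 Spectrophotometric readout (streptavidin-peroxidase, ABTS) of biotinylated galectin retained on ASF-coated wells. Biotinylated hGal-1 or hGal-3, 300-1000 ng/mL, co-incubated with test compound 3 h at 4° C, then washed. Mean IC50 from repeat runs.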

human Gal-3 (hGal-3), sequence (P17931 whole entry): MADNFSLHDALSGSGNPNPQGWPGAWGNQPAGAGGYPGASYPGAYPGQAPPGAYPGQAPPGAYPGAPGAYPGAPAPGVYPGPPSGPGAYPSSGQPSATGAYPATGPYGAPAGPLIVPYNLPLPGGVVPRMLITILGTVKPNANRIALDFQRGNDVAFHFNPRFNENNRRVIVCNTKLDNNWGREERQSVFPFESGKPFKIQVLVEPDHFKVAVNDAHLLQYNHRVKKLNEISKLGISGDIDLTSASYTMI
human Gal-1 (hGal-1), sequence (P09382 2-135 limits assumed): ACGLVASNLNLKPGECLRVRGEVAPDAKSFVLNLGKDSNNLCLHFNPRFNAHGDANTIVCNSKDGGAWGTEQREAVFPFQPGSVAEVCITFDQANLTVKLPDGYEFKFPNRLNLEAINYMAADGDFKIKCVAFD

Structure (SMILES)	IC50 (human Gal-1 (hGal-1)) [nM]	IC50 (human Gal-3 (hGal-3)) [nM]
CO[C@@H]1[C@@H](n2cc(-c3ccc(C)c(F)c3F)nn2)[C@@H](O)[C@@H](CO)O[C@@H]1Cc1cc(C2(Oc3cncc(Br)c3)COC2)on1 [Ex 1.322]	> 100000	310
CCC(O)(CC)c1cc(C[C@H]2O[C@H](CO)[C@H](O)[C@H](n3cc(-c4ccc(C)c(F)c4F)nn3)[C@H]2OC)no1 [Ex 1.323]	5080	620
CO[C@@H]1[C@@H](n2cc(-c3ccc(C)c(F)c3F)nn2)[C@@H](O)[C@@H](CO)O[C@@H]1Cc1cc(C2(CO)CC2)on1 [Ex 1.324]	3570	140
CO[C@@H]1[C@@H](n2cc(-c3ccc(C)c(F)c3F)nn2)[C@@H](O)[C@@H](CO)O[C@@H]1Cc1cc(C2(O)CCCC2)no1 [Ex 1.326]	2870	57
CCOC(C)(C)c1cc(C[C@H]2O[C@H](CO)[C@H](O)[C@H](n3cc(-c4ccc(C)c(F)c4F)nn3)[C@H]2OC)on1 [Ex 1.327]	4170	76
COCC(C)(C)c1cc(C[C@H]2O[C@H](CO)[C@H](O)[C@H](n3cc(-c4ccc(C)c(F)c4F)nn3)[C@H]2OC)on1 [Ex 1.330]	4360	61
Cc1ccc(-c2cn([C@H]3[C@@H](O)[C@@H](CO)O[C@H](Cc4cc(C5(C)CC5)no4)[C@@H]3O)nn2)c(F)c1F [Ex 1.333]	6990	10
Cc1ccc(-c2cn([C@H]3[C@@H](O)[C@@H](CO)O[C@H](Cc4cc(C(C)(C)CO)no4)[C@@H]3O)nn2)c(F)c1F [Ex 1.334]	3310	24
Cc1ccc(-c2cn([C@H]3[C@@H](O)[C@@H](CO)O[C@H](Cc4cc(C5(C)COC5)no4)[C@@H]3O)nn2)c(F)c1F [Ex 1.335]	3780	26
CO[C@@H]1[C@@H](n2cc(-c3ccc(C)c(F)c3F)nn2)[C@@H](O)[C@@H](CO)O[C@@H]1Cc1cc(C(C)(O)c2ccccc2)on1 (some centres unmarked) [Ex 1.339]	10000	280
CO[C@@H]1[C@@H](n2cc(-c3ccc(C)c(F)c3F)nn2)[C@@H](O)[C@@H](CO)O[C@@H]1Cc1cc(C(C)(O)c2ccccc2)on1 (some centres unmarked) [Ex 1.340]	10400	330
CO[C@@H]1[C@@H](n2cc(-c3ccc(C)c(F)c3F)nn2)[C@@H](O)[C@@H](CO)O[C@@H]1Cc1cc(C(C)c2ccccc2)no1 (some centres unmarked) [Ex 1.342]	33000	550
CO[C@@H]1[C@@H](n2cc(-c3ccc(C)c(F)c3F)nn2)[C@@H](O)[C@@H](CO)O[C@@H]1Cc1cc([C@@H]2CC[C@H]2O)on1 [Ex 1.343]	9190	93
CC(=O)O[C@@H]1[C@@H](n2cc(-c3ccc(C)c(F)c3F)nn2)[C@@H](O)[C@@H](CO)O[C@@H]1Cc1cc([C@@H]2CCC[C@H]2O)on1 [Ex 1.344]	17000	40
CO[C@@H]1[C@@H](n2cc(-c3ccc(C)c(F)c3F)nn2)[C@@H](O)[C@@H](CO)O[C@@H]1Cc1cc(C2CCC2O)on1 (some centres unmarked) [Ex 1.346]	11700	100
CO[C@@H]1[C@@H](n2cc(-c3ccc(C)c(F)c3F)nn2)[C@@H](O)[C@@H](CO)O[C@@H]1Cc1cc(C2CCC2O)on1 (some centres unmarked) [Ex 1.347]	8210	110
CO[C@@H]1[C@@H](n2cc(-c3ccc(C)c(F)c3F)nn2)[C@@H](O)[C@@H](CO)O[C@@H]1Cc1cc([C@H]2C[C@H]2O)on1 [Ex 1.349]	7020	180
CO[C@@H]1[C@@H](n2cc(-c3ccc(C)c(F)c3F)nn2)[C@@H](O)[C@@H](CO)O[C@@H]1Cc1cc([C@@H]2C[C@H]2O)on1 [Ex 1.350]	6780	270
COc1ccc(-c2cc(C[C@H]3O[C@H](CO)[C@H](O)[C@H](n4cc(-c5cc(F)c(F)c(F)c5)nn4)[C@H]3O)on2)cc1 [Example 2.01, (2R,3R,4R,5R,6R)-2-(hydroxymethyl)-6-((3-(4-methoxyphenyl)isoxazol-5-yl)methyl)-4-(4-(3,4,5-trifluorophenyl)-1H-1,2,3-triazol-1-yl)tetrahydro-2H-pyran-3,5-diol]	8360	840
O=c1cc(C2=NO[C@@H](C[C@H]3O[C@H](CO)[C@H](O)[C@H](n4cc(-c5cc(F)c(F)c(F)c5)nn4)[C@H]3O)C2)cc[nH]1 [Example 2.04, 4-((R)-5-(((2R,3R,4R,5R,6R)-3,5-dihydroxy-6-(hydroxymethyl)-4-(4-(3,4,5-trifluorophenyl)-1H-1,2,3-triazol-1-yl)tetrahydro-2H-pyran-2-yl)methyl)-4,5-dihydroisoxazol-3-yl)pyridin-2(1H)-one]	12300	910
CO[C@@H]1[C@@H](n2cc(-c3cc(F)c(F)c(F)c3)nn2)[C@@H](O)[C@@H](CO)O[C@@H]1C[C@H]1CC(c2cc[nH]c(=O)c2)=NO1 [Example 2.07b, 4-((R)-5-(((2R,3R,4S,5R,6R)-5-hydroxy-6-(hydroxymethyl)-3-methoxy-4-(4-(3,4,5-trifluorophenyl)-1H-1,2,3-triazol-1-yl)tetrahydro-2H-pyran-2-yl)methyl)-4,5-dihydroisoxazol-3-yl)pyridin-2(1H)-one]	11700	1700
O=C(O)[C@H]1CC[C@](O)(c2cc(C[C@H]3O[C@H](CO)[C@H](O)[C@H](n4cc(-c5cc(F)c(F)c(F)c5)nn4)[C@H]3O)no2)CC1 [Example 2.11, (1S,4s)-4-(3-(((2R,3R,4R,5R,6R)-3,5-dihydroxy-6-(hydroxymethyl)-4-(4-(3,4,5-trifluorophenyl)-1H-1,2,3-triazol-1-yl)tetrahydro-2H-pyran-2-yl)methyl)isoxazol-5-yl)-4-hydroxycyclohexane-1-carboxylic acid]	13700	2540
O=C1CCC(c2cc(C[C@H]3O[C@H](CO)[C@H](O)[C@H](n4cc(-c5cc(F)c(F)c(F)c5)nn4)[C@H]3O)no2)CC1 [Example 2.12, 4-(3-(((2R,3R,4R,5R,6R)-3,5-dihydroxy-6-(hydroxymethyl)-4-(4-(3,4,5-trifluorophenyl)-1H-1,2,3-triazol-1-yl)tetrahydro-2H-pyran-2-yl)methyl)isoxazol-5-yl)cyclohexan-1-one]	3650	190

Now those with a lower IC50 (human Gal-1 (hGal-1)), led by results:

IC50 (human Gal-1 (hGal-1)) [nM]	IC50 (human Gal-3 (hGal-3)) [nM]	Structure (SMILES)
600	17	CCOC(=O)N1CCC(C)(c2cc(C[C@H]3O[C@H](CO)[C@H](O)[C@H](n4cc(-c5ccc(C)c(F)c5F)nn4)[C@H]3OC)on2)CC1 [Ex 1.325]
960	77	COc1ccc(-c2cn([C@H]3[C@@H](O)[C@@H](CO)O[C@H](CC4CC(C5CCN(C(=O)OC(C)(C)C)CC5)=NO4)[C@@H]3OC)nn2)c(F)c1F (some centres unmarked) [Ex 1.328]
440	69	CO[C@@H]1[C@@H](n2cc(-c3cccc(F)c3F)nn2)[C@@H](O)[C@@H](CO)O[C@@H]1CC1CC(C2CCN(C(=O)OC(C)(C)C)CC2)=NO1 (some centres unmarked) [Ex 1.329]
1990	58	CO[C@@H]1[C@@H](n2cc(-c3ccc(C)c(F)c3F)nn2)[C@@H](O)[C@@H](CO)O[C@@H]1Cc1cc(C(C)(C)CNC(=O)OC(C)(C)C)no1 [Ex 1.331]
980	43	CO[C@@H]1[C@@H](n2cc(-c3ccc(C)c(F)c3F)nn2)[C@@H](O)[C@@H](CO)O[C@@H]1Cc1cc(C2(CC#N)CC2)no1 [Ex 1.332]
1880	23	CO[C@@H]1[C@@H](n2cc(-c3ccc(C)c(F)c3F)nn2)[C@@H](O)[C@@H](CO)O[C@@H]1Cc1cc(C(C)(C)CN)no1 [Ex 1.336]
420	55	CO[C@@H]1[C@@H](n2cc(-c3cc(F)c(F)c(F)c3)nn2)[C@@H](O)[C@@H](CO)O[C@@H]1Cc1cc(C2CCNC(=O)CC2)no1 (some centres unmarked) [Ex 1.337]
1980	150	CO[C@@H]1[C@@H](n2cc(-c3ccc(C#N)c(F)c3F)nn2)[C@@H](O)[C@@H](CO)O[C@@H]1Cc1cc(C(C)(C)C)no1 [Ex 1.338]
720	44	CO[C@@H]1[C@@H](n2cc(-c3ccc(C)c(F)c3F)nn2)[C@@H](O)[C@@H](CO)O[C@@H]1Cc1cc(C2CCC(=O)N(C)CC2)no1 (some centres unmarked) [Ex 1.345]
250	68	CO[C@@H]1[C@@H](n2cc(-c3ccc(C)c(F)c3F)nn2)[C@@H](O)[C@@H](CO)O[C@@H]1Cc1cc(C2CCNC(=O)CC2)no1 (some centres unmarked) [Ex 1.348]
1050	180	CO[C@@H]1[C@@H](n2cc(-c3cccc(F)c3F)nn2)[C@@H](O)[C@@H](CO)O[C@@H]1Cc1cc(C(C)(C)C)on1 [Ex 1.351]
1170	100	COc1ccc(-c2cn([C@H]3[C@@H](O)[C@@H](CO)O[C@H](Cc4cc(C(C)(C)C)on4)[C@@H]3OC)nn2)c(F)c1F [Ex 1.352]
390	190	O=c1cc(C2=NO[C@H](C[C@H]3O[C@H](CO)[C@H](O)[C@H](n4cc(-c5cc(F)c(F)c(F)c5)nn4)[C@H]3O)C2)cc[nH]1 [Example 2.05, 4-((S)-5-(((2R,3R,4R,5R,6R)-3,5-dihydroxy-6-(hydroxymethyl)-4-(4-(3,4,5-trifluorophenyl)-1H-1,2,3-triazol-1-yl)tetrahydro-2H-pyran-2-yl)methyl)-4,5-dihydroisoxazol-3-yl)pyridin-2(1H)-one]
310	260	CO[C@@H]1[C@@H](n2cc(-c3cc(F)c(F)c(F)c3)nn2)[C@@H](O)[C@@H](CO)O[C@@H]1C[C@@H]1CC(c2cc[nH]c(=O)c2)=NO1 [Example 2.07a, 4-((S)-5-(((2R,3R,4S,5R,6R)-5-hydroxy-6-(hydroxymethyl)-3-methoxy-4-(4-(3,4,5-trifluorophenyl)-1H-1,2,3-triazol-1-yl)tetrahydro-2H-pyran-2-yl)methyl)-4,5-dihydroisoxazol-3-yl)pyridin-2(1H)-one]
